Experimental data: PMC7609719 (2020)

Assays:
[1] = tested on: ATP3 (DNA, aptamer) ACCTGGGGGAGTATTGCGGAGGAAGGT; assay: ITC, two-site cooperative fit; conditions: Na+ (120 mM NaCl), 10 mM sodium acetate pH 5.5, 20 °C, site 1 of 2
[2] = tested on: ATP10 (DNA, aptamer, inosine at 9 (G9I)) ACCTGGGGGAGTATTGCGGAGGAAGGT; assay: ITC, one-site fit; conditions: Na+ (120 mM NaCl); 10 mM sodium acetate pH 5.5, 20 °C
[3] = tested on: ATP7 (DNA, aptamer) ACCTGGGCGCGGGAGTATTGCGGAGCGAGGAAGGT; assay: ITC, two independent sites fit; conditions: Na+ (120 mM NaCl); 10 mM sodium acetate pH 5.5, 20 °C; 100 µM DNA; site 1 of 2
[4] = tested on: Apt1d (DNA, aptamer) TTCGGGGAGTATTGCGGAGGAA; assay: ITC; conditions: Na+ (100 mM NaCl), Mg2+ (2 mM MgCl2); 10 mM HEPES pH 7.6, 20 °C; 100 µM DNA
[5] = tested on: ATP7 (DNA, aptamer) ACCTGGGCGCGGGAGTATTGCGGAGCGAGGAAGGT; assay: UV melting, 260 nm; conditions: Na+ (120 mM NaCl); 10 mM sodium acetate pH 5.5; 95% ligand-bound; derived from two Tm (55.6 ± 0.5, 55.8 ± 0.6)
[6] = tested on: Apt1d-GC2 (DNA, aptamer) TTCGGGGCGTATTGCGCAGGAA; assay: ITC; conditions: Na+ (100 mM NaCl), Mg2+ (2 mM MgCl2); 10 mM HEPES pH 7.6, 20 °C; 100 µM DNA
[7] = tested on: ATP3 (DNA, aptamer) ACCTGGGGGAGTATTGCGGAGGAAGGT; assay: UV melting, 260 nm; conditions: Na+ (120 mM NaCl); 10 mM sodium acetate pH 5.5; 95% ligand-bound; derived from two Tm (45.2 ± 0.5, 44.2 ± 1.5)
[8] = tested on: Apt1d-GC1 (DNA, aptamer) TTCGGGGAGTATTGCGCAGGAA; assay: ITC; conditions: Na+ (100 mM NaCl), Mg2+ (2 mM MgCl2); 10 mM HEPES pH 7.6, 20 °C; 100 µM DNA
[9] = tested on: ATP9 (DNA, aptamer, inosine at 22 (G22I)) ACCTGGGGGAGTATTGCGGAGGAAGGT; assay: ITC, one-site fit; conditions: Na+ (120 mM NaCl); 10 mM sodium acetate pH 5.5, 20 °C
[10] = tested on: ATP17 (DNA, aptamer) ACCTGGGCGGGGAGTATTGCGGACGAGGAAGGT; assay: ITC, two-site cooperative fit; conditions: Na+ (120 mM NaCl); 10 mM sodium acetate pH 5.5, 20 °C; 100 µM DNA; site 1 of 2

Nc1ncnc2c1ncn2[C@@H]1O[C@H](COP(=O)(O)O)[C@@H](O)[C@H]1O
Kd1 ([1]; 70 µM DNA): 86 ± 26 µM

Nc1ncnc2c1ncn2[C@@H]1O[C@H](COP(=O)(O)OP(=O)(O)OP(=O)(O)O)[C@@H](O)[C@H]1O
Kd1 ([1]; 70 µM DNA): 133 ± 55 µM

Nc1ncnc2c1ncn2[C@@H]1O[C@H](CO)[C@@H](O)[C@H]1O
affinity [2]: 188 ± 37 µM | Kd1 [3]: 1.3 ± 0.5 µM | Kd1 ([1]; average of fits at 10-100 µM aptamer): 25 ± 15 µM | binding [4]: yes | melting temperature change (ΔTm, bound minus free) [5]: 0.2 °C | binding [6]: no | melting temperature change (ΔTm, bound minus free) [7]: -1.0 °C | binding [8]: no | affinity [9]: 212 ± 69 µM | Kd1 [10]: 44 ± 8 µM

Nc1ncnc2c1ncn2[C@@H]1O[C@H](COP(=O)(O)OP(=O)(O)O)[C@@H](O)[C@H]1O
Kd1 ([1]; 70 µM DNA): 101 ± 33 µM
